Results reported in the supplement of paper PMC10307832.

Assays:
Experiment in all cases: relative viability (nuclei count vs DMSO), 5 days (fraction); higher = more cells survive
[1] = system: LCLC-97TM1
In short: (§1)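 The day after seeding in 1536-well plates, lung cancer cell lines were treated by pin tool with a single drug, or with a fixed anchor-drug dose together with five library-drug doses (not always all listed) in √10 steps. After 5 days, a combined fix-and-stain solution (final 0.05% Triton X-100, 1% formaldehyde, 1 ug/ml Hoechst) was added. Nuclei counted on 4× images gave relative viability as treated counts over vehicle counts, reported as the median of duplicate plates.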

[2] = system: NCI-H322M
In short: as §1

[3] = system: NCI-H520
In short: as §1

[4] = system: NCI-H1793
In short: as §1

[5] = system: NCI-H1651
In short: as §1

[6] = system: NCI-H1355
In short: as §1

[7] = system: HCC-44
In short: as §1

[8] = system: NCI-H1563
In short: as §1

[9] = system: HCC-827
In short: as §1

[10] = system: NCI-H23
In short: as §1

[11] = system: NCI-H2405
In short: as §1

[12] = system: UMC-11
In short: as §1

[13] = system: NCI-H2085
In short: as §1

Question: For COc1cc(N2CCC(C(N)=O)CC2)ccc1Nc1nc(N)c(Cl)c(Nc2ccccc2S(=O)(=O)C(C)C)n1 [HG-5-88-01] + CCNC(=O)c1noc(-c2cc(C(C)C)c(O)cc2O)c1-c1ccc(CN2CCOCC2)cc1 [Luminespib] (partner 0.01 µM), which relative viability ([1]; first compound 1.265 µM) is on record?
Answer: 0.511

Question: What about the relative viability ([1]; first compound 4 µM) of the same compound?
Answer: 0.301

Question: And the relative viability ([2]; first compound 0.04 µM)?
Answer: 0.782

Question: What about the relative viability ([2]; first compound 0.1265 µM) of the same compound?
Answer: 0.835

Question: And the relative viability ([2]; first compound 0.4 µM)?
Answer: 0.555

Question: What about the relative viability ([2]; first compound 4 µM) of the same compound?
Answer: 0.627

Question: And the relative viability ([3]; first compound 0.04 µM)?
Answer: 0.186

Question: And the relative viability ([3]; first compound 0.1265 µM)?
Answer: 0.225

Question: And the relative viability ([3]; first compound 0.4 µM)?
Answer: 0.197

Question: And the relative viability ([3]; first compound 1.265 µM)?
Answer: 0.202

Question: What about the relative viability ([3]; first compound 4 µM) of the same compound?
Answer: 0.247

Question: And the relative viability ([4]; first compound 0.1265 µM)?
Answer: 0.168

Question: And the relative viability ([4]; first compound 0.4 µM)?
Answer: 0.198

Question: What about the relative viability ([4]; first compound 4 µM) of the same compound?
Answer: 0.272

Question: What about the relative viability ([5]; first compound 0.04 µM) of the same compound?
Answer: 0.87

Question: And the relative viability ([5]; first compound 0.1265 µM)?
Answer: 0.976

Question: And the relative viability ([5]; first compound 0.4 µM)?
Answer: 1.17

Question: And the relative viability ([5]; first compound 1.265 µM)?
Answer: 0.771

Question: And the relative viability ([5]; first compound 4 µM)?
Answer: 0.934

Question: What about the relative viability ([6]; first compound 0.04 µM) of the same compound?
Answer: 0.663

Question: What about the relative viability ([6]; first compound 0.1265 µM) of the same compound?
Answer: 0.753

Question: What about the relative viability ([6]; first compound 0.4 µM) of the same compound?
Answer: 0.703

Question: And the relative viability ([6]; first compound 1.265 µM)?
Answer: 0.617

Question: And the relative viability ([6]; first compound 4 µM)?
Answer: 0.809

Question: What about the relative viability ([7]; first compound 0.04 µM) of the same compound?
Answer: 1.01

Question: What about the relative viability ([7]; first compound 0.1265 µM) of the same compound?
Answer: 0.988

Question: And the relative viability ([7]; first compound 0.4 µM)?
Answer: 0.915

Question: What about the relative viability ([7]; first compound 1.265 µM) of the same compound?
Answer: 0.366

Question: What about the relative viability ([7]; first compound 4 µM) of the same compound?
Answer: 0.783

Question: What about the relative viability ([8]; first compound 0.04 µM) of the same compound?
Answer: 0.542

Question: And the relative viability ([8]; first compound 0.1265 µM)?
Answer: 0.539

Question: And the relative viability ([8]; first compound 0.4 µM)?
Answer: 0.476

Question: What about the relative viability ([8]; first compound 1.265 µM) of the same compound?
Answer: 0.485

Question: What about the relative viability ([8]; first compound 4 µM) of the same compound?
Answer: 0.519

Question: And the relative viability ([9]; first compound 0.04 µM)?
Answer: 0.767

Question: And the relative viability ([9]; first compound 0.1265 µM)?
Answer: 0.86

Question: And the relative viability ([9]; first compound 0.4 µM)?
Answer: 0.575

Question: What about the relative viability ([9]; first compound 1.265 µM) of the same compound?
Answer: 0.581

Question: And the relative viability ([9]; first compound 4 µM)?
Answer: 0.361

Question: And the relative viability ([10]; first compound 0.04 µM)?
Answer: 0.215

Question: And the relative viability ([10]; first compound 0.1265 µM)?
Answer: 0.203

Question: And the relative viability ([10]; first compound 0.4 µM)?
Answer: 0.225

Question: What about the relative viability ([10]; first compound 1.265 µM) of the same compound?
Answer: 0.187

Question: And the relative viability ([10]; first compound 4 µM)?
Answer: 0.241

Question: What about the relative viability ([11]; first compound 0.04 µM) of the same compound?
Answer: 0.872

Question: And the relative viability ([11]; first compound 0.1265 µM)?
Answer: 0.692

Question: What about the relative viability ([11]; first compound 0.4 µM) of the same compound?
Answer: 0.594

Question: And the relative viability ([11]; first compound 1.265 µM)?
Answer: 0.457

Question: And the relative viability ([11]; first compound 4 µM)?
Answer: 0.673

Question: What about the relative viability ([12]; first compound 0.04 µM) of the same compound?
Answer: 0.914

Question: And the relative viability ([12]; first compound 0.1265 µM)?
Answer: 1.08

Question: What about the relative viability ([12]; first compound 1.265 µM) of the same compound?
Answer: 0.983

Question: And the relative viability ([12]; first compound 4 µM)?
Answer: 1.12

Question: What about the relative viability ([13]; first compound 0.04 µM) of the same compound?
Answer: 0.405

Question: What about the relative viability ([13]; first compound 0.1265 µM) of the same compound?
Answer: 0.453

Question: And the relative viability ([13]; first compound 0.4 µM)?
Answer: 0.407

Question: And the relative viability ([13]; first compound 1.265 µM)?
Answer: 0.434

Question: And the relative viability ([13]; first compound 4 µM)?
Answer: 0.464
